Test results: PMC9097129, “C-terminal mini-PEGylation of a marine peptide N6 had potent antibacterial and anti-inflammatory properties against Escherichia coli and Salmonella strains in vitro and in vivo” (BMC Microbiology, 2022)

Key:
S. pullorum CVCC533 [1] = experiment: Organ injury, histopathology (HE); format: in vivo, mice; details: 48 h and 4 d post-treatment, peptides 10 μmol/kg, HE staining
Description: (§1) The mice were treated with N6 (4 and 10 μmol/kg) and N6-COOH-miniPEG (4 and 10 μmol/kg) after intraperitoneal injection of E. coli CVCC195 for 0.5 and 8 h or S. pullorum CVCC533 for 0.5 h as described above. Livers, spleens, kidneys and lungs were removed from the mice at 24 h and 5 d post-treatment after E. coli CVCC195 injection and at 48 h and 4 d post-treatment after S. pullorum CVCC533 injection, respectively, washed in PBS, fixed in 4% paraformaldehyde at 4 °C for 24 h, and stained with hematoxylin and eosin (HE) for histopathology analysis. Finally, the tissue samples were fixed and observed by the light microscope. The uninfected mice served as the blank control (CK); the infected mice being treated with PBS were used as the negative control.

E. coli 0111:B4 LPS = experiment: Endotoxemia mouse model, serum cytokines by ELISA; format: in vivo, mice; parameters: levels of TNF-α in sera: unit not given here; details: for Decrease of serum IL-1β level / Decrease of serum IL-6 level / Decrease of serum IL-10 level / Decrease of serum TNF-α level: LPS 10 mg/kg i.p., peptides 0.25 μmol/kg, PMB 10 μmol/kg, CIP 5 μmol/kg; for levels of IL-1β in sera / levels of TNF-α in sera: ELISA kit, mean of n = 3
Description: The mice (10 mice/group) were injected intraperitoneally with N6 and N6-COOH-miniPEG (0.25 μmol/kg), PMB (10 μmol/kg) or CIP (5 μmol/kg) 0.5 h after challenge with 10 mg/kg E. coli 0111:B4 LPS. Blood was collected in a heparin sodium tube at 2 or 8 h after LPS injection and incubated for 30 min at 37 °C and then overnight at 4 °C. After centrifugation at 3,000 rpm for 10 min at 4 °C, serum was collected from supernatant. The cytokine levels of TNF-α, IL-6, IL-1β and IL-10 in serum were detected by the Jiaxuan Biotech. Co. Ltd. (Beijing, China) using an ELISA. […]

S. pullorum CVCC533 [2] = experiment: Mouse peritonitis model, survival; format: in vivo, ICR mice
Description: (§2) Similarly, after the intraperitoneal injection with S. pullorum CVCC533 (5 × 10^7 CFU/mL, 0.2 mL), the mice were treated with N6 (8 and 10 μmol/kg), N6-COOH-miniPEG (8 and 10 μmol/kg) or CIP (0.8 and 1 μmol/kg) at 0.5 h, respectively. The mice injected with antibiotics or PBS served as the positive and blank control (CK), respectively. Survival of the mice was recorded daily for 7 d.

S. pullorum CVCC533 [3] = experiment: Time-killing curves; format: cell-based, Salmonella pullorum; details: 1 × MIC
Description: The sample (100 μL) was taken from each flask at 0, 0.5, 1, 2, 4, 6, 8, 10, 12, and 24 h, respectively and serially diluted for colony counting. The group untreated with peptides was a blank control. PMB and CIP were used as the positive control. Similarly, bacterial cells (1 × 10^5 CFU/mL) were incubated with 3/128, 1/32, 3/64, 1/16, 3/32, 1/8, 3/16, 1/4, 3/8, 1/2, 3/4, 1, 2, 3, and 4 × MIC N6 or N6-COOH-miniPEG. The sample was taken from each flask at 24 h and serially diluted for colony counting.

S. pullorum CVCC533 [4] = experiment: Bacterial translocation, bacterial loads in organs; format: in vivo, mice; parameters: bacteria counted in the organs of mice infected with S. pullorum: unit not given here
Description: (§3) The mice (10 mice/group) were challenged with E. coli CVCC195 (1 × 10^9 CFU/mL, 0.2 mL) or S. pullorum CVCC533 (5 × 10^7 CFU/mL, 0.2 mL) by intraperitoneal injection and treated with N6 (4 and 10 μmol/kg) or N6-COOH-miniPEG (4 and 10 μmol/kg). To evaluate bacterial loads in organs, the livers, spleens, kidneys and lungs were removed from the sacrificed mice at 24 h post treatment and homogenized in sterile PBS for E. coli CVCC195 colony counting; similarly, the livers, spleens, kidneys and lungs were removed from the sacrificed mice at 48 h after treatment and homogenized in sterile PBS for S. pullorum CVCC533 colony counting. The uninfected mice served as the blank control (CK); the infected mice treated with PBS were used as the negative control. The mice were sacrificed by neck dislocation under inhaled isoflurane anesthesia (RWD Life Science Co., LTD. Shenzhen, China).

E. coli CVCC195 [5] = experiment: Organ injury, histopathology (HE); format: in vivo, mice; details: 24 h and 5 d post-treatment, peptides 4 μmol/kg, HE staining
Description: as §1

E. coli CVCC195 [6] = experiment: Mouse peritonitis model, survival; format: in vivo, ICR mice; parameters: survival of mice in E. coli lethal model: unit not given here
Description: To evaluate in vivo efficacy of N6 and N6-COOH-miniPEG, the 6-week-old female ICR mice, weight 20 ± 2 g (10 mice/group) were intraperitoneally injected with E. coli CVCC195 or S. pullorum CVCC533 at a concentration of absolute lethal dose (LD100). After the intraperitoneal injection with E. coli CVCC195 (1 × 10^9 CFU/mL, 0.2 mL), the mice were treated with N6 (2 and 4 μmol/kg), N6-COOH-miniPEG (2 and 4 μmol/kg) or PMB (0.125 and 0.25 μmol/kg) at 0.5 h and 8 h, respectively.
as §2

E. coli CVCC195 [7] = experiment: Bacterial translocation, bacterial loads in organs; format: in vivo, mice; parameters: unit not given here; details: mean of n = 3
Description: as §3

[8] = peptides 10 μmol/kg, CIP 1 μmol/kg, 48 h after treatment, versus untreated infected mice

Compound: O=C(O)c1cn(C2CC2)c2cc(N3CCNCC3)c(F)cc2c1=O [CIP]
- Organ injury, histopathology (S. pullorum CVCC533 [1]): apparently less damage of liver, spleen, kidney and lung
- Decrease of serum IL-1β level (E. coli 0111:B4 LPS; 2 h): 9.13%
- Decrease of serum IL-6 level (E. coli 0111:B4 LPS; 2 h): 30.83%
- Decrease of serum IL-10 level (E. coli 0111:B4 LPS; 2 h): 15.33%
- Decrease of serum TNF-α level (E. coli 0111:B4 LPS; 2 h): 1.78%
- levels of IL-1β in sera (E. coli 0111:B4 LPS; 2 h after treatment): 87.9333
- levels of TNF-α in sera (E. coli 0111:B4 LPS; 2 h after treatment): 153
- Decrease of serum IL-1β level (E. coli 0111:B4 LPS; 8 h): 0.07%
- Decrease of serum IL-6 level (E. coli 0111:B4 LPS; 8 h): -0.24%
- Decrease of serum IL-10 level (E. coli 0111:B4 LPS; 8 h): 0.13%
- Decrease of serum TNF-α level (E. coli 0111:B4 LPS; 8 h): -0.37%
- levels of IL-1β in sera (E. coli 0111:B4 LPS; 8 h after treatment): 171.167
- levels of TNF-α in sera (E. coli 0111:B4 LPS; 8 h after treatment): 559.733
- survival of mice in S. pullorum lethal model (S. pullorum CVCC533 [2]; 0.8 μmol/kg, day 0): 100
- survival of mice in S. pullorum lethal model (S. pullorum CVCC533 [2]; 0.8 μmol/kg, day 1): 100
- survival of mice in S. pullorum lethal model (S. pullorum CVCC533 [2]; 0.8 μmol/kg, day 2): 100
- survival of mice in S. pullorum lethal model (S. pullorum CVCC533 [2]; 0.8 μmol/kg, day 3): 100
- survival of mice in S. pullorum lethal model (S. pullorum CVCC533 [2]; 0.8 μmol/kg, day 4): 83.3333
- survival of mice in S. pullorum lethal model (S. pullorum CVCC533 [2]; 0.8 μmol/kg, day 5): 83.3333
- survival of mice in S. pullorum lethal model (S. pullorum CVCC533 [2]; 0.8 μmol/kg, day 6): 83.3333
- survival of mice in S. pullorum lethal model (S. pullorum CVCC533 [2]; 0.8 μmol/kg, day 7): 83.3333
- Survival rate of mice (S. pullorum CVCC533 [2]; 1 μmol/kg i.p. at 0.5 h (legend of Fig. 6: 0.5 and 8 h), 7 d): 100%
- survival of mice in S. pullorum lethal model (S. pullorum CVCC533 [2]; 1 μmol/kg, day 0): 100
- survival of mice in S. pullorum lethal model (S. pullorum CVCC533 [2]; 1 μmol/kg, day 1): 100
- survival of mice in S. pullorum lethal model (S. pullorum CVCC533 [2]; 1 μmol/kg, day 2): 100
- survival of mice in S. pullorum lethal model (S. pullorum CVCC533 [2]; 1 μmol/kg, day 3): 100
- survival of mice in S. pullorum lethal model (S. pullorum CVCC533 [2]; 1 μmol/kg, day 4): 100
- survival of mice in S. pullorum lethal model (S. pullorum CVCC533 [2]; 1 μmol/kg, day 5): 100
- survival of mice in S. pullorum lethal model (S. pullorum CVCC533 [2]; 1 μmol/kg, day 6): 100
- survival of mice in S. pullorum lethal model (S. pullorum CVCC533 [2]; 1 μmol/kg, day 7): 100
- Time to kill 99.9% of cells (S. pullorum CVCC533 [3]): ≤ 6 h
- bacteria counted in the organs of mice infected with S. pullorum (S. pullorum CVCC533 [4]; Kidney, mean): 3.299
- bacteria counted in the organs of mice infected with S. pullorum (S. pullorum CVCC533 [4]; Liver, replicate 1): 3.641
- bacteria counted in the organs of mice infected with S. pullorum (S. pullorum CVCC533 [4]; Liver, replicate 2): 4.221
- bacteria counted in the organs of mice infected with S. pullorum (S. pullorum CVCC533 [4]; Lung, mean): 3.527
- bacteria counted in the organs of mice infected with S. pullorum (S. pullorum CVCC533 [4]; Spleen, replicate 1): 4.255
- bacteria counted in the organs of mice infected with S. pullorum (S. pullorum CVCC533 [4]; Spleen, replicate 2): 4.222
- bacteria counted in the organs of mice infected with S. pullorum (S. pullorum CVCC533 [4]; Spleen, replicate 3): 3.905
- Decrease of bacterial count in kidneys (S. pullorum CVCC533 [4]; [8]): 40.20%
- Decrease of bacterial count in livers (S. pullorum CVCC533 [4]; [8]): 31.66%
- Decrease of bacterial count in lungs (S. pullorum CVCC533 [4]; [8]): 43.65%
- Decrease of bacterial count in spleens (S. pullorum CVCC533 [4]; [8]): 47.75%

Compound: polymyxin B [PMB]
- Organ injury, histopathology (E. coli CVCC195 [5]): apparently less damage of liver, spleen, kidney and lung
- levels of TNF-α in sera (E. coli 0111:B4 LPS; 2 h after treatment): 99.8667
- levels of TNF-α in sera (E. coli 0111:B4 LPS; 8 h after treatment): 239.767
- survival of mice in E. coli lethal model (E. coli CVCC195 [6]; 0.125 μmol/kg, day 0): 100
- survival of mice in E. coli lethal model (E. coli CVCC195 [6]; 0.125 μmol/kg, day 1): 80
- survival of mice in E. coli lethal model (E. coli CVCC195 [6]; 0.125 μmol/kg, day 2): 60
- survival of mice in E. coli lethal model (E. coli CVCC195 [6]; 0.125 μmol/kg, day 3): 30
- survival of mice in E. coli lethal model (E. coli CVCC195 [6]; 0.125 μmol/kg, day 4): 30
- survival of mice in E. coli lethal model (E. coli CVCC195 [6]; 0.125 μmol/kg, day 5): 30
- survival of mice in E. coli lethal model (E. coli CVCC195 [6]; 0.125 μmol/kg, day 6): 30
- survival of mice in E. coli lethal model (E. coli CVCC195 [6]; 0.125 μmol/kg, day 7): 30
- Survival rate of mice (E. coli CVCC195 [6]; 0.25 μmol/kg i.p. at 0.5 h and 8 h, 7 d): 100%
- survival of mice in E. coli lethal model (E. coli CVCC195 [6]; 0.25 μmol/kg, day 0): 100
- survival of mice in E. coli lethal model (E. coli CVCC195 [6]; 0.25 μmol/kg, day 1): 100
- survival of mice in E. coli lethal model (E. coli CVCC195 [6]; 0.25 μmol/kg, day 2): 100
- survival of mice in E. coli lethal model (E. coli CVCC195 [6]; 0.25 μmol/kg, day 3): 100
- survival of mice in E. coli lethal model (E. coli CVCC195 [6]; 0.25 μmol/kg, day 4): 100
- survival of mice in E. coli lethal model (E. coli CVCC195 [6]; 0.25 μmol/kg, day 5): 100
- survival of mice in E. coli lethal model (E. coli CVCC195 [6]; 0.25 μmol/kg, day 6): 100
- survival of mice in E. coli lethal model (E. coli CVCC195 [6]; 0.25 μmol/kg, day 7): 100
- bacteria counted in the organs of mice infected with E. coli (E. coli CVCC195 [7]; Kidney): 3.851
- bacteria counted in the organs of mice infected with E. coli (E. coli CVCC195 [7]; Liver): 3.743
- bacteria counted in the organs of mice infected with E. coli (E. coli CVCC195 [7]; Lung): 3.796
- bacteria counted in the organs of mice infected with E. coli (E. coli CVCC195 [7]; Spleen): 3.605
